Measurements from patent US9056863B2, “Substituted 2,3,5,9,9B-pentaazacyclopenta[a]naphthalenes and uses thereof” (H. Lundbeck A/S, priority 2011, dated 2015).

How the values were obtained:
[1] = mice, BSO glutathione depletion; cited from earlier work
[2] = cited from earlier work
[3] = in vivo; cited from earlier work
[4] = aged rats; cited from earlier work
[5] = system: primary neuronal cultures and hippocampal slices; settings: cited from earlier work
[6] = tryptophan depletion; cited from earlier work
rat hippocampal slices = settings: cited from earlier work
human PDE2A enzyme = human PDE2A enzyme (Homo sapiens (Human), UniProt O00408); assay: PDE2A inhibition assay; assay type: biochemical; settings: 15 nM tritium labelled cAMP, SPA
Sequence of human PDE2A enzyme (O00408 whole entry): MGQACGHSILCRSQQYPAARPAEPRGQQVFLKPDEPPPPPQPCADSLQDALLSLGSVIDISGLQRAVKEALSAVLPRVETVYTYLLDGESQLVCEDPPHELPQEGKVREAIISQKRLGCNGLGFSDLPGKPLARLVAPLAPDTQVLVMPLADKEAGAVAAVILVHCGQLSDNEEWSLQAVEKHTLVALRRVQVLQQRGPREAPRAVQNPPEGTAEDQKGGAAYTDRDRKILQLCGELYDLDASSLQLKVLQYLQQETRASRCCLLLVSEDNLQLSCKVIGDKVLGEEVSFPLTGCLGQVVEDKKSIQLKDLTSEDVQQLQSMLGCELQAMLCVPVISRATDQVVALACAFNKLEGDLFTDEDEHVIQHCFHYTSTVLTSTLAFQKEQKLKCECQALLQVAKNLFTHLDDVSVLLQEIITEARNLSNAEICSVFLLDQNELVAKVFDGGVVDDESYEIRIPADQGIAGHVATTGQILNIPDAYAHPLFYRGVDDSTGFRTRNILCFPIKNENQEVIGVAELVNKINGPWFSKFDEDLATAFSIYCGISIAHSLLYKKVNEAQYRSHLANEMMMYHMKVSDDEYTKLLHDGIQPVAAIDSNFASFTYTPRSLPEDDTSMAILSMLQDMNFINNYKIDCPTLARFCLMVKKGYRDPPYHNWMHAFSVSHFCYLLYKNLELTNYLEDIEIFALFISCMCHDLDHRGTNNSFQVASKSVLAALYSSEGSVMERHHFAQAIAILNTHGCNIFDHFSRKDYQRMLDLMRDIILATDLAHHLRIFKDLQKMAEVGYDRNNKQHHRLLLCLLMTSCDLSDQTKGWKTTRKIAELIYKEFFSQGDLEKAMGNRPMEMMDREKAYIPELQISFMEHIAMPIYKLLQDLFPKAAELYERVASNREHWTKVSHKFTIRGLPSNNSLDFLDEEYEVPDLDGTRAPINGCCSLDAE
Procedure: Likewise, active human PDE2A enzyme (ATCC68585) is prepared in a number of ways for use in PDE assays and procedures are well known to those skilled in the art.
A typical PDE2A assay was performed as follows: the assay was performed in 60 μL samples containing a fixed amount of the […] enzyme (sufficient to convert 20-25% of the cyclic nucleotide substrate), a buffer (50 mM HEPES pH 7.6; 10 mM MgCl2; 0.02% Tween20), 0.1 mg/ml BSA, 15 nM tritium labelled cAMP and varying amounts of inhibitors. Reactions were initiated by addition of the cyclic nucleotide substrate, and reactions were allowed to proceed for 1 h at room temperature before being terminated through mixing with 20 μL (0.2 mg) yttrium silicate SPA beads (Amersham). The beads were allowed to settle for 1 h in the dark before the plates were counted in a Wallac 1450 Microbeta counter. The measured signals were converted to activity relative to an uninhibited control (100%) and IC50 values were calculated using XlFit (model 205, IDBS).

human PDE10A = human PDE10A (Homo sapiens (Human), UniProt Q9Y233); assay: PDE10A inhibition assay; assay type: biochemical; settings: for PDE10 % inhibition: @ 10,000 nM
Sequence of human PDE10A (Q9Y233 716-1055): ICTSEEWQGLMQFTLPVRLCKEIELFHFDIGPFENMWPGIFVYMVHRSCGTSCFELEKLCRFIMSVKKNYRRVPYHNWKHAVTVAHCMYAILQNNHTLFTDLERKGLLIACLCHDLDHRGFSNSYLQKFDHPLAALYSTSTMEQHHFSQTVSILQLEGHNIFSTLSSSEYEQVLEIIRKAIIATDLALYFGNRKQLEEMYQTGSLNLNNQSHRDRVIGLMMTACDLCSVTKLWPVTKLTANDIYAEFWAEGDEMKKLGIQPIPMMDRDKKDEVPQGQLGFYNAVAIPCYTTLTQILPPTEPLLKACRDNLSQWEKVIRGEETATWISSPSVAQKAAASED
Procedure: Active PDE10A enzyme is prepared in a number of ways for use in PDE assays (Loughney, K. et al. Gene 1999, 234, 109-117; Fujishige, K. et al. Eur J. Biochem. 1999, 266, 1118-1127 and Soderling, S. et al. Proc. Natl. Acad. Sci. 1999, 96, 7071-7076). PDE10A can be expressed as full-length proteins or as truncated proteins, as long as they express the catalytic domain. PDE10A can be prepared in different cell types, for example insect cells or E. coli. An example of a method to obtain catalytically active PDE10A is as follows: The catalytic domain of human PDE10A (amino acids 440-779 from the sequence with accession number NP 006652) is amplified from total human brain total RNA by standard RT-PCR and is cloned into the BamH1 and XhoI sites of the pET28a vector (Novagen). Expression in coli is performed according to standard protocols. Briefly, the expression plasmids are transformed into the BL21(DE3) E. coli strain, and 50 mL cultures inoculated with the cells allowed to grow to an OD600 of 0.4-0.6 before protein expression is induced with 0.5 mM IPTG. Following induction, the cells are incubated overnight at room temperature, after which the cells are collected by centrifugation. Cells expressing PDE10A are resuspended in 12 mL (50 mM TRIS-HCl-pH8.0, 1 mM MgCl2 and protease inhibitors). The cells are lysed by sonication, and after all cells are lysed, TritonX100 is added according to Novagen protocols.
A typical PDE10A assay was performed as follows: the assay was performed in 60 μL samples containing a fixed amount of the […] enzyme (sufficient to convert 20-25% of the cyclic nucleotide substrate), a buffer (50 mM HEPES pH 7.6; 10 mM MgCl2; 0.02% Tween20), 10 nM tritium labelled cAMP and varying amounts of inhibitors. […] The beads were allowed to settle for 1 h in the dark before the plates were counted in a Wallac 1450 Microbeta counter. The measured signals were converted to activity relative to an uninhibited control (100%) and IC50 values were calculated using XlFit (model 205, IDBS).

[7] = cited from earlier work; remark: listed apart in the source
[8] = rats, subchronic phencyclidine; cited from earlier work
[9] = rats; cited from earlier work

COc1ccc(Cc2nn3c([C@@H](CCCc4ccccc4)[C@@H](C)O)nc(C)c3c(=O)[nH]2)cc1OC [Bay 60-7550]
anxiety-like behaviours [1]: reversed
anxiogenic effects of restraint stress on behaviour [2]: antagonized the anxiogenic effects
activity in novel object and social recognition tasks [3]: active
object recognition [4]: beneficial effect
cGMP [5]: preferentially increases cGMP
deficit in object recognition [6]: reverse the deficit in object recognition
long term potentiation (LTP) induction (rat hippocampal slices): increases long term potentiation (LTP) induction

Cc1cccc(Cl)c1-c1nnc2c(C)nc3ncccc3n12 [Example Ia2, 1-(2-Chloro-6-methyl-phenyl)-4-methyl-2,3,5,6,9b-pentaaza-cyclopenta[a]naphthalene]
IC50 (human PDE2A enzyme): 0.504 µM
PDE10 % inhibition (human PDE10A): 48% inhibition

Cc1nc2cnccc2n2c(-c3ccccc3Cl)nnc12 [Example Ib1, 1-(2-Chloro-phenyl)-4-methyl-2,3,5,7,9b-pentaaza-cyclopenta[a]naphthalene]
IC50 (human PDE2A enzyme): 0.471 µM
PDE10 % inhibition (human PDE10A): 68% inhibition

Cc1nc2ccncc2n2c(-c3ccccc3Cl)nnc12 [Example Ic1, 1-(2-Chloro-phenyl)-4-methyl-2,3,5,8,9b-pentaaza-cyclopenta[a]naphthalene]
IC50 (human PDE10A; 10 nM tritium labelled cAMP, SPA, read-out: PDE10 IC50): 1.76 µM

COc1cc2c(cc1-c1ccccc1)C(c1cccc(C(N)=O)c1)=NCC(=O)N2C [ND7001]
anxiogenic effects of restraint stress on behaviour [2]: antagonized the anxiogenic effects

NCCN(CCN)/[N+]([O-])=N/O [detanonoate]
anxiogenic effects of restraint stress on behaviour [2]: antagonized the anxiogenic effects

O=C(CCCN1CCC(O)(c2ccc(Cl)cc2)CC1)c1ccc(F)cc1 [haloperidol]
cGMP levels ([7]; patients): increased
cAMP levels ([7]; rats): increased

COc1ccc(Cc2nccc3cc(OC)c(OC)cc23)cc1OC [papaverine]
attentional set-shifting deficits [8]: reverses attentional set-shifting deficits
apomorphine-induced stereotypies [9]: reduces apomorphine-induced stereotypies
dopamine concentration in rat brain [9]: reducing dopamine concentration
haloperidol-induced catalepsy [9]: increases haloperidol-induced catalepsy
